Test results as given in PubChem BioAssay (NCI).
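Grown in 96-well plates, cells were treated for 48 hours with each compound at five concentrations. Insufficient inhibition: endpoint recorded as highest concentration tested. TGI denotes the concentration required for complete inhibition of growth.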

How the values were obtained:
Assay in all cases: inhibition of tumour cell growth, NCI panel, 48 h
[1] = system: HL-60(TB) leukemia
[2] = system: HT29 colon
[3] = system: U251 CNS
[4] = system: OVCAR-3 ovarian
[5] = system: EKVX NSCLC
[6] = system: SK-MEL-2 melanoma
[7] = system: IGROV1 ovarian
[8] = system: COLO 205 colon
[9] = system: TK-10 renal
[10] = system: UACC-62 melanoma
[11] = system: CAKI-1 renal
[12] = system: OVCAR-5 ovarian
[13] = system: SK-MEL-28 melanoma

SMILES	TGI [1] [µM]	TGI [2] [µM]	TGI [3] [µM]	TGI [4] [µM]	TGI [5] [µM]	TGI [6] [µM]	TGI [7] [µM]	TGI [8] [µM]	TGI [9] [µM]	TGI [10] [µM]	TGI [11] [µM]	TGI [12] [µM]	TGI [13] [µM]
Cc1ccc(S(=O)(=O)n2ccn3c(=O)cc(C)nc23)cc1	> 10	> 10	> 10	> 10	> 10	> 10	> 10	> 10	> 10	> 10	> 10	> 10	> 10
C=CCSc1nn(CC=C)cc2ncnc1-2	> 100	> 100	> 100	> 100	> 100	> 100	> 100	> 100	> 100	> 100	> 100	> 100	> 100
CC(O[Si](C)(C)C(C)(C)C)[C@H](NC(=O)OCC(Cl)(Cl)Cl)C(=O)O (stereo partly specified)	> 100	> 100	> 100	> 100	> 100	–	> 100	> 100	> 100	> 100	–	> 100	> 100
Cc1[nH]n(-c2ccccc2)c(=S)c1C(=O)c1ccccc1	> 100	–	> 100	–	54.9	> 100	> 100	> 100	94.4	> 100	> 100	> 100	> 100
O=C(c1nsc(Cl)c1Cl)N1CCCCC1	> 100	> 100	> 100	> 100	> 100	–	> 100	> 100	> 100	> 100	> 100	> 100	> 100
Cc1ccc(N2C(=O)/C(=c3\s/c(=C(/N)O)c(=N)n3-c3ccccc3)SC2=S)cc1	> 100	> 100	> 100	> 100	–	–	> 100	> 100	> 100	> 100	–	> 100	> 100
COc1cc2c(cc1OC)-c1cc3ccccc3c(=O)n1CCC2	11.5	41.2	> 65.7	60.4	> 100	86.6	66	> 60.2	> 100	36.5	44.9	> 100	> 73.6
Cc1ccc(S(=O)(=O)C2=c3ncccc3=C3C(=O)c4ccccc4C(=O)C32)cc1 (stereo unspecified)	> 100	> 100	> 100	> 100	> 100	> 100	> 62.2	> 100	> 71.3	69.7	> 100	> 83.9	> 100
CC(=O)CN=C(C)NNc1ccc([N+](=O)[O-])cc1[N+](=O)[O-]	–	> 100	> 100	> 100	> 100	> 100	> 100	> 100	–	> 100	> 100	> 100	> 100
CC1C(c2ccccc2O)c2cc3c(cc2OC1N1CCCC1)OCO3 (stereo unspecified)	35.1	30.8	> 100	56.6	> 100	80	> 100	55.5	> 100	> 100	> 100	> 100	46.6
CC(C)C1OCC(CO)CO1 (stereo unspecified)	> 100	> 100	> 100	> 100	> 100	> 100	–	> 100	> 100	> 100	> 100	> 100	> 100
COc1cc(CNC(=O)CCCCCCCC/C=C/Br)ccc1O	> 10	> 10	> 10	> 10	> 10	> 10	> 10	> 10	> 10	> 10	> 10	–	> 10
Cc1ccc(C2SC(N)=Nc3c2c(C)nn3C(=O)c2ccncc2)cc1 (stereo unspecified)	> 10	> 10	> 10	> 10	–	> 10	> 10	> 10	> 10	> 10	> 10	> 10	> 10
COc1cc(/C=C2\NC(=O)N(/C=C3\C(=O)Oc4ccccc4C3=O)C2=O)ccc1O	62	> 100	> 100	–	> 100	> 100	> 100	> 100	> 100	> 100	> 100	> 100	–
CC(C)CCNC(=O)c1ccc(CNC(=O)/C=C/c2ccc(-c3ccccc3[N+](=O)[O-])o2)cc1	> 100	–	> 100	> 100	–	> 100	–	> 100	–	> 100	> 100	> 100	> 100
CCCCc1ccc(Nc2nc(Cl)c3[nH]cnc3n2)cc1	> 100	36.3	–	28.9	> 100	31	71.8	43.4	50.6	31.9	54.1	> 100	–
CC[n+]1[b-](C(C)(C)C)n(/N=C(\C)C(C)(C)C)[b-](C(C)(C)C)[n+]1CC	–	> 100	> 100	> 100	> 100	> 100	> 100	–	> 100	> 100	> 100	> 100	> 100
CN1c2ccccc2C2c3c(O)ccc(O)c3C=C([N+](=O)[O-])C21 (stereo unspecified)	3.17	0.568	4.84	–	7.63	7.08	5.87	8.55	23.3	2.66	5.16	5.87	11.3
CNC(Cc1ccccc1)c1cccc(OC)c1O (stereo unspecified)	–	> 100	> 100	> 100	> 100	> 100	> 100	–	> 100	> 100	> 100	> 100	> 100
